# pIC50: −log10 of the molar value. Activity calls are given as the source filed them. The rule behind the calls is not given here.
# Tested on: SVR
# Assay: Antiproliferative activity against mouse SVR cells at 20 ug/ml after 48 hrs by Coulter counting method
# Assay type: functional, cell-based
row,Compound,Activity
1,Brc1ccc(/C=N/Nc2nc(-c3ccccc3)cc(-c3ccccc3)n2)cc1,Active
2,Cc1cccc(-c2nnc(-c3cccc(NC(=O)c4ccco4)c3)o2)c1,Active
3,COc1cc(/C=C/C(=O)CC(=O)/C=C/c2ccc(O)c(OC)c2)ccc1O,Active
4,Cc1cc(C)n(-c2nc(-c3ccccc3)cc(-c3ccccc3)n2)n1,Active
5,CN(C)c1ccc(/C=C/C(=O)c2ccco2)cc1,Active

# Target: Matrix metalloproteinase-9 (Homo sapiens, UniProt P14780)
# Sequence (P14780 whole entry): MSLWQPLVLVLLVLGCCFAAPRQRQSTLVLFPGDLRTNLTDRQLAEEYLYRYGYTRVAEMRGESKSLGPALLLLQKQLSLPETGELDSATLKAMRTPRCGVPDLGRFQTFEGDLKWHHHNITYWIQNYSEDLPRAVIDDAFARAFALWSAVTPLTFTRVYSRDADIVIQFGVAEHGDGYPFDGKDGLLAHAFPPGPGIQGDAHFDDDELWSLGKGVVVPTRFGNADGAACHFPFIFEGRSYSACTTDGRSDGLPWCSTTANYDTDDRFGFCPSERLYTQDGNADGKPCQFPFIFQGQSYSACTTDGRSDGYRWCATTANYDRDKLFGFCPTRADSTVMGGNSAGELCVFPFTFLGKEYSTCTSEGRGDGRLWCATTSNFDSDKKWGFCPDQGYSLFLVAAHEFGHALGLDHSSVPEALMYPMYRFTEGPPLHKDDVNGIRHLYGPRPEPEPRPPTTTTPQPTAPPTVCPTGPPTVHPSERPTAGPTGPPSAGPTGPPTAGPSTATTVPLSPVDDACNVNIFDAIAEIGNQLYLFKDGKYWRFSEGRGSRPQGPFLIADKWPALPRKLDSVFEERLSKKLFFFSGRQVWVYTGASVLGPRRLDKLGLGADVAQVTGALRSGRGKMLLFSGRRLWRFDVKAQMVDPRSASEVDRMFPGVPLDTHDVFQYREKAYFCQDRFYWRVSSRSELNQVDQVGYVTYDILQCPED
# Assay: Inhibition of MMP9
row,pIC50,Compound
1,9.30,CC1(C)OC[C@H](C(CS(=O)(=O)c2ccc(Oc3ccc(OC(F)(F)F)cc3)cc2)N(O)C=O)O1 (some centres not stated)
2,9.31,O=CN(O)C(CS(=O)(=O)c1ccc(Oc2ccc(OC(F)(F)F)cc2)cc1)C(CO)CO (configuration not stated)
3,9.47,CC1(C)NC(=O)N(CC(CS(=O)(=O)c2ccc(-c3ccc(OC(F)(F)F)cc3)cc2)N(O)C=O)C1=O (configuration not stated)
4,8.70,CC1(C)C[C@@H](C(CS(=O)(=O)c2ccc(Oc3ccc(OC(F)(F)F)cc3)cc2)N(O)C=O)N(S(C)(=O)=O)C1 (some centres not stated)
5,7.43,CC1(C)NC(=O)N(CC(CS(=O)(=O)c2ccc(Oc3ccc(Cl)cc3)cc2)N(O)C=O)C1=O (configuration not stated)
6,8.96,C[C@@H]1OC(C)(C)O[C@H]1C(CS(=O)(=O)c1ccc(Oc2ccc(OC(F)(F)F)cc2)cc1)N(O)C=O (some centres not stated)
7,8.96,CCC1(CC)OC[C@H](C(CS(=O)(=O)c2ccc(Oc3ccc(OC(F)(F)F)cc3)cc2)N(O)C=O)O1 (some centres not stated)
